Source: article PMC8536124 (International Journal of Molecular Sciences, 2021)

Tests used:
Assay in all cases: NCI-60 screening (SRB)
Format in all cases: cell-based, human
IGROV1 = tested on: IGROV1
MCF7 = settings: five-dose
OVCAR-4 = settings: five-dose
RXF 393 = settings: five-dose
HL-60(TB) = tested on: HL-60(TB)
SK-MEL-28 = settings: five-dose
HT29 = tested on: HT29
OVCAR-5 = settings: five-dose
786-0 = settings: five-dose
TK-10 = settings: five-dose
MALME-3M = settings: MALME-3M, five-dose
UACC-257 = settings: five-dose
ACHN = settings: five-dose
SNB-19 = settings: five-dose
NCI-H226 = settings: five-dose
SK-MEL-2 = settings: five-dose
SK-OV-3 = settings: five-dose
NCI-H322M = settings: five-dose
NCI-H522 = settings: five-dose
NCI-H23 = settings: five-dose
U251 = settings: U251, five-dose
LOX IMVI = settings: LOX IMVI, five-dose
HCT-116 = settings: five-dose
PC-3 = settings: five-dose
BT-549 = settings: five-dose
SF-268 = settings: five-dose
K-562 = tested on: K-562
CAKI-1 = settings: CAKI-1, five-dose
OVCAR-8 = settings: five-dose
UO-31 = settings: five-dose
KM12 = settings: five-dose
UACC-62 = settings: five-dose
A549/ATCC = settings: five-dose
HS 578T = settings: five-dose
[1] = Homo sapiens, read-out: LC50 (the source's name)
[2] = HL-60(TB) (Leukemia), 1 dose 10 µM

## CCN1CCN(C(=O)[C@]23CC[C@@H](C)[C@H](C)[C@H]2C2=CC[C@@H]4[C@@]5(C)C/C(=C/c6cccnc6)C(=O)C(C)(C)[C@@H]5CC[C@@]4(C)[C@]2(C)CC3)CC1 [Compound 9, N-(2-{3-Pyridinylidene}-3-oxoursan-12-en-28-oyl)-ethylpiperazine]
IGROV1; Homo sapiens, IGROV-1, five-dose
  GI50: 1.89 µM
IGROV1; Homo sapiens, IGROV-1, five-dose, read-out: LC50 (the source's name)
  CC50: 7.94 µM
IGROV1; five-dose
  TGI: 3.87 µM
MCF7; Homo sapiens
  GI50: 1.64 µM
MCF7; [1]
  CC50: 7.14 µM
MCF7
  TGI: 3.42 µM
OVCAR-4; Homo sapiens
  GI50: 2.57 µM
OVCAR-4; [1]
  CC50: 36.6 µM
OVCAR-4
  TGI: 7.36 µM
RXF 393; Homo sapiens
  GI50: 1.45 µM
RXF 393; [1]
  CC50: 5.53 µM
RXF 393
  TGI: 2.83 µM
HL-60(TB); [2]
  Growth %: −38.20%
  cell death: 38.20%
HL-60(TB); HL-60(TB), five-dose
  TGI: 8.97 µM
HL-60(TB); Homo sapiens, HL-60(TB), five-dose
  GI50: 2.78 µM
HL-60(TB); Homo sapiens, HL-60(TB), five-dose, read-out: LC50 (the source's name)
  CC50: > 100 µM
SK-MEL-28; Homo sapiens
  GI50: 1.74 µM
SK-MEL-28; [1]
  CC50: 5.69 µM
SK-MEL-28
  TGI: 3.15 µM
HT29; Homo sapiens, HT-29, five-dose
  GI50: 1.93 µM
HT29; Homo sapiens, HT-29, five-dose, read-out: LC50 (the source's name)
  CC50: > 100 µM
HT29; five-dose
  TGI: 5.36 µM
OVCAR-5; Homo sapiens
  GI50: 1.54 µM
OVCAR-5; [1]
  CC50: 5.57 µM
OVCAR-5
  TGI: 2.93 µM
786-0; Homo sapiens
  GI50: 1.98 µM
786-0
  TGI: 4.37 µM
TK-10; Homo sapiens
  GI50: 2.87 µM
TK-10; [1]
  CC50: 59.3 µM
TK-10
  TGI: 9.40 µM
MALME-3M; Homo sapiens
  GI50: 1.4 µM
MALME-3M; [1]
  CC50: 5.39 µM
MALME-3M
  TGI: 2.75 µM
UACC-257; Homo sapiens
  GI50: 2.21 µM
UACC-257; [1]
  CC50: > 100 µM
UACC-257
  TGI: 5.95 µM
ACHN; Homo sapiens
  GI50: 2.46 µM
  LC50: 22.6 µM
ACHN
  TGI: 6.45 µM
SNB-19; Homo sapiens
  GI50: 1.79 µM
SNB-19; [1]
  CC50: 7.82 µM
SNB-19
  TGI: 3.74 µM
NCI-H226; Homo sapiens
  GI50: 1.89 µM
NCI-H226; [1]
  CC50: 8.78 µM
NCI-H226
  TGI: 4.07 µM
SK-MEL-2; Homo sapiens
  GI50: 2.12 µM
SK-MEL-2; [1]
  CC50: 65.5 µM
SK-MEL-2
  TGI: 4.76 µM
SK-OV-3; Homo sapiens
  GI50: 2.7 µM
SK-OV-3; [1]
  CC50: 90.1 µM
SK-OV-3
  TGI: 9.02 µM
NCI-H322M; Homo sapiens
  GI50: 2.28 µM
NCI-H322M; [1]
  CC50: 28.8 µM
NCI-H322M
  TGI: 8.27 µM
NCI-H522; Homo sapiens
  GI50: 1.66 µM
NCI-H522
  TGI: 3.86 µM
NCI-H23; Homo sapiens
  GI50: 2.13 µM
NCI-H23; [1]
  CC50: 31.8 µM
NCI-H23
  TGI: 5.91 µM
U251; Homo sapiens, U-251
  GI50: 1.82 µM
U251
  TGI: 3.67 µM
LOX IMVI; Homo sapiens
  GI50: 1.58 µM
LOX IMVI; [1]
  CC50: 5.91 µM
LOX IMVI
  TGI: 3.06 µM
HCT-116; Homo sapiens
  GI50: 1.69 µM
HCT-116; [1]
  CC50: 7.43 µM
HCT-116
  TGI: 3.55 µM
PC-3; Homo sapiens
  GI50: 1.49 µM
PC-3; [1]
  CC50: 9.92 µM
PC-3
  TGI: 3.85 µM
BT-549; Homo sapiens
  GI50: 1.69 µM
BT-549
  TGI: 3.59 µM
SF-268; Homo sapiens
  GI50: 1.77 µM
SF-268; [1]
  CC50: 9.15 µM
SF-268
  TGI: 4.02 µM
K-562; Homo sapiens, K562, five-dose
  GI50: 2.08 µM
K-562; Homo sapiens, K562, five-dose, read-out: LC50 (the source's name)
  CC50: > 100 µM
K-562; five-dose
  TGI: 5.00 µM
CAKI-1
  TGI: 11.8 µM
CAKI-1; Homo sapiens
  GI50: 2.12 µM
CAKI-1; [1]
  CC50: 41.9 µM
OVCAR-8; Homo sapiens
  GI50: 2.32 µM
OVCAR-8; [1]
  CC50: > 100 µM
OVCAR-8
  TGI: 6.29 µM
UO-31; Homo sapiens
  GI50: 1.36 µM
UO-31; [1]
  CC50: 5.19 µM
UO-31
  TGI: 2.65 µM
KM12; Homo sapiens
  GI50: 1.75 µM
KM12; [1]
  CC50: 7.23 µM
KM12
  TGI: 3.56 µM
UACC-62; Homo sapiens
  GI50: 1.51 µM
UACC-62; [1]
  CC50: 5.8 µM
UACC-62
  TGI: 2.96 µM
A549/ATCC; Homo sapiens
  GI50: 3.15 µM
A549/ATCC; [1]
  CC50: > 100 µM
A549/ATCC
  TGI: 16.8 µM
HS 578T; Homo sapiens
  GI50: 1.91 µM
HS 578T; [1]
  CC50: > 100 µM
HS 578T
  TGI: 4.77 µM
